Test results: PubChem BioAssay (NCI)
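Cultured in 96-well plates, cells were exposed to test compound for 48 hours across five concentrations. TGI is the concentration that stops growth completely.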

Assays:
Test in all cases: NCI-60 cell line screen, 48 h
[1] = test system: MOLT-4 leukemia
[2] = test system: UO-31 renal
[3] = test system: NCI/ADR-RES ovarian
[4] = test system: OVCAR-4 ovarian
[5] = test system: SK-MEL-2 melanoma
[6] = test system: MDA-MB-231 breast
[7] = test system: SF-539 CNS
[8] = test system: HCC-2998 colon
[9] = test system: EKVX NSCLC
[10] = test system: NCI-H460 lung
[11] = test system: A549 NSCLC
[12] = test system: OVCAR-5 ovarian
[13] = test system: 786-0 renal
[14] = test system: T-47D breast
[15] = test system: ACHN renal
[16] = test system: OVCAR-8 ovarian
[17] = test system: SW-620 colon
[18] = test system: COLO 205 colon
[19] = test system: SK-OV-3 ovarian
[20] = test system: MDA-MB-435
[21] = test system: MCF7 breast
[22] = test system: SN12C renal
[23] = test system: CCRF-CEM leukemia
[24] = test system: KM12 colon
[25] = test system: OVCAR-3 ovarian
[26] = test system: HCT-15 colon
[27] = test system: LOX IMVI melanoma
[28] = test system: RXF 393 renal
[29] = test system: SF-295 CNS
[30] = test system: NCI-H226 lung
[31] = test system: NCI-H23 lung
[32] = test system: SK-MEL-28 melanoma
[33] = test system: BT-549 breast
[34] = test system: SNB-75 CNS
[35] = test system: NCI-H522 lung
[36] = test system: TK-10 renal
[37] = test system: RPMI-8226 leukemia
[38] = test system: MDA-N
[39] = test system: CAKI-1 renal
[40] = test system: UACC-257 melanoma
[41] = test system: A498 renal
[42] = test system: HCT-116 colon
[43] = test system: SNB-19 CNS
[44] = test system: SF-268 CNS
[45] = test system: MALME-3M melanoma
[46] = test system: PC-3 prostate
[47] = test system: SK-MEL-5 melanoma
[48] = test system: M14 melanoma
[49] = test system: HOP-62 NSCLC
[50] = test system: HT29 colon
[51] = test system: U251 CNS
[52] = test system: IGROV1 ovarian
[53] = test system: HL-60(TB) leukemia
[54] = test system: DU-145 prostate
[55] = test system: SR leukemia
[56] = test system: UACC-62 melanoma

CC(C)=C[C@H]1CCC2(OCCO2)[C@]1(C)COCc1ccccc1
TGI [1]: 32.3 µM
TGI [2]: > 100 µM
TGI [3]: > 100 µM
TGI [4]: > 100 µM
TGI [5]: 85.9 µM
TGI [6]: 53.7 µM
TGI [7]: 61.7 µM
TGI [8]: 37.4 µM
TGI [9]: > 100 µM
TGI [10]: 59 µM
TGI [11]: > 100 µM
TGI [12]: 82.1 µM
TGI [13]: 80.1 µM
TGI [14]: > 100 µM
TGI [15]: > 100 µM
TGI [16]: > 100 µM
TGI [17]: > 100 µM
TGI [18]: 32.3 µM
TGI [19]: > 100 µM
TGI [20]: > 100 µM
TGI [21]: > 100 µM
TGI [22]: 68.5 µM
TGI [23]: 34.5 µM
TGI [24]: > 100 µM
TGI [25]: 52.7 µM
TGI [26]: > 100 µM
TGI [27]: 31 µM
TGI [28]: 31.7 µM
TGI [29]: > 100 µM
TGI [30]: 46.8 µM
TGI [31]: > 100 µM
TGI [32]: > 100 µM
TGI [33]: > 100 µM
TGI [34]: > 100 µM
TGI [35]: 62.1 µM
TGI [36]: > 100 µM
TGI [37]: 41.9 µM
TGI [38]: > 100 µM
TGI [39]: > 100 µM
TGI [40]: 46.4 µM
TGI [41]: 66.7 µM
TGI [42]: > 100 µM
TGI [43]: > 100 µM
TGI [44]: > 100 µM
TGI [45]: > 100 µM
TGI [46]: > 100 µM
TGI [47]: 32 µM
TGI [48]: 99.4 µM

Cc1sc2nc(-c3cccc([N+](=O)[O-])c3)c(/C=N/N=C(N)N)n2c1C
TGI [2]: 3.13 µM
TGI [3]: 45.1 µM
TGI [49]: 3.1 µM
TGI [5]: 3.09 µM
TGI [50]: 2.98 µM
TGI [7]: 3.72 µM
TGI [8]: 2.61 µM
TGI [9]: 3.06 µM
TGI [11]: 3.02 µM
TGI [12]: 3.06 µM
TGI [13]: 3.22 µM
TGI [15]: 3.08 µM
TGI [16]: 3.23 µM
TGI [51]: 3.07 µM
TGI [18]: 3.72 µM
TGI [19]: 3.3 µM
TGI [20]: 3.18 µM
TGI [24]: 3.24 µM
TGI [25]: 4.02 µM
TGI [52]: 2.59 µM
TGI [26]: 3.03 µM
TGI [27]: 3.16 µM
TGI [28]: 3.22 µM
TGI [29]: 2.95 µM
TGI [32]: 3.03 µM
TGI [33]: 2.83 µM
TGI [35]: 3.17 µM
TGI [36]: 2.84 µM
TGI [38]: 3.15 µM
TGI [39]: 3.77 µM
TGI [40]: 3.06 µM
TGI [41]: 2.88 µM
TGI [53]: 3.63 µM
TGI [45]: 3.71 µM
TGI [47]: 3.03 µM
TGI [48]: 2.95 µM

COc1cccc2c1C(=O)c1c(O)c3c(c(O)c1C2=O)CC(O)(C(=O)CO)CC3OC1CC(N2CCOCC2C#N)C(O)C(C)O1 (centres undefined)
TGI [1]: < 0.0001 µM
TGI [3]: 0.00357 µM
TGI [49]: < 0.0001 µM
TGI [5]: < 0.0001 µM
TGI [6]: < 0.0001 µM
TGI [7]: < 0.0001 µM
TGI [8]: < 0.0001 µM
TGI [9]: < 0.0001 µM
TGI [11]: > 100 µM
TGI [12]: 19.1 µM
TGI [13]: 5.22 µM
TGI [14]: < 0.0001 µM
TGI [54]: > 100 µM
TGI [17]: 0.0569 µM
TGI [18]: < 0.0001 µM
TGI [19]: 2.4 µM
TGI [20]: < 0.0001 µM
TGI [22]: 0.00109 µM
TGI [55]: > 100 µM
TGI [56]: < 0.0001 µM
TGI [23]: < 0.0001 µM
TGI [25]: 3.28 µM
TGI [26]: 1.56 µM
TGI [30]: < 0.0001 µM
TGI [31]: 0.128 µM
TGI [32]: < 0.0001 µM
TGI [33]: 0.00113 µM
TGI [35]: < 0.0001 µM
TGI [38]: < 0.0001 µM
TGI [39]: 0.00425 µM
TGI [40]: < 0.0001 µM
TGI [42]: 12.2 µM
TGI [53]: < 0.0001 µM
TGI [46]: < 0.0001 µM
TGI [48]: < 0.0001 µM
